# Measured values taken from patent US12071414B2, “Apelin receptor agonists and methods of use thereof” (Sanford Burnham Prebys Medical Discovery Institute, priority 2015, dated 2024).
# Target: T1, human apelin receptor (APJ, AGTRL-one, APLNR) (Homo sapiens, UniProt P35414)
# T1 construct: host or cells: Chinese hamster ovary cells, stably integrated receptor
# T1 sequence (P35414 1-380): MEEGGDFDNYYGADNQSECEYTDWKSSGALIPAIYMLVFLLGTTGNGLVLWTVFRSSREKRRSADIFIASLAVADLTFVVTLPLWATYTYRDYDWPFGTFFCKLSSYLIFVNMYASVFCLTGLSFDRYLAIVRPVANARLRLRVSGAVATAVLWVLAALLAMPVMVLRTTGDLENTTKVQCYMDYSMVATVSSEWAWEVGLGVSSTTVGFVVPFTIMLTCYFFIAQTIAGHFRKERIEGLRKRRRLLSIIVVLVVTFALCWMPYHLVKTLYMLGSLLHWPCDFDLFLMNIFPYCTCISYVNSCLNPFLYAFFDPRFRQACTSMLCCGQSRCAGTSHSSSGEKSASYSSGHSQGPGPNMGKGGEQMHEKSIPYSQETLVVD
# Experiment: cell-based cAMP TR-FRET assay of apelin receptor activation
# Details: CHO cells expressing human APJ, forskolin-stimulated cAMP, 0.5 h incubation, 50% of control (apelin-13, 1 nM) response; read-out: Potency Category (EC50)
# Description: The assays disclosed herein were performed using cell lines from DiscoveX, Inc. Biological activity was determined to the cell—based assay. This assay detects activation of the receptor by reporting on intracellular cyclic adenosine monophosphate (cAMP) level. Chinese hamster ovary cells engineered to express the stably integrated human apelin receptor (APJ, AGTRL—one, APLNR), pleaded into the wells of the microtiter plate. Cells were stimulated with […] to increase intracellular cyclic AMP. Immediately following, compounds were added to the range of final concentrations 0.0-100 μM, in DMSO (not to exceed a final DMSO concentration greater than 1% ν/ν), and allowed to incubate with the cells for 0.5 h. At the end of the incubation, cells were lysed to stop APJ signaling and cAMP was quantified using a commercially available competitive immunoassay kit that applies homogenous time—resolved florescence energy transfer (TR—FRET). The assay is based on the competition between a europium (Eu) chelate—labeled cAMP donor tracer and cellular cAMP for binding sites on a cAMP—specific monoclonal antibody labeled with an acceptor fluorophore. When antibodies are bound to the cAMP tracer light emissions at 320 nm stimulate the energy transfer from the donor to the acceptor, which in turn emits light at 665 nm. In the presence of competitive unlabeled cAMP (derived from the activity of the receptor or forskolin-stimulated production of cAMP), the labelled cAMP tracer is dissociated from the cAMP antibody, resulting in a loss of FRET signal. The amount of light emitted by the FRET is inversely proportional to the cAMP generated by the cell/receptor system. Potency and efficacy at APJ are reported in reference to the canonical APJ receptor agonist apelin—13 when tested at 1 nM. […] Compound efficacy (% response) is reported as a percentage of the maximal apein-13 response at 1 nM (control). Potencies were calculated by fitting a […] logistic curve to concentration response consisting of at least 10 discrete data points spanning effective range of the compounds in the cell-based assay that measures cAMP. […] Category B is 200-500 nM; Category C is 100-200 nM; Category D is 50-100 nM; and Category E is <50 nM.
row,SMILES,EC50
1,CCS(=O)(=O)c1ccc(C(Nc2cccc(OC)c2)C(=O)Nc2nc3cc(OC)c(OC)cc3s2)cc1 (stereo not drawn),> 0.5 µM
2,CCS(=O)(=O)c1ccc(C(Oc2ccc(C#N)cc2)C(=O)Nc2nc3ccc4c(c3s2)OCO4)cc1 (stereo not drawn),> 0.5 µM
3,COc1cc2nc(NC(=O)C(Oc3ccc(C#N)cc3)c3ccc(C(=O)NCCN4CCCCC4)cc3)oc2cc1OC (stereo not drawn),> 0.5 µM
4,CCS(=O)(=O)c1ccc(C(Oc2ccc(F)cc2)C(=O)Nc2nc3cc(OC)c(OC)cc3s2)cc1 (stereo not drawn),> 0.5 µM
5,CCS(=O)(=O)c1ccc(C(Oc2ccccc2C)C(=O)Nc2nc3cc(OC)c(OC)cc3s2)cc1 (stereo not drawn),> 0.5 µM
6,COc1cc2nc(NC(=O)Cc3cccc(S(=O)(=O)c4ccc(F)cc4)c3)sc2cc1OC,> 0.5 µM
7,CCS(=O)(=O)c1ccc(CC(=O)Nc2nc3ccc(N4CCN(C)CC4)cc3s2)cc1,> 0.5 µM
8,COc1ccc(S(=O)(=O)c2ccc(C(Oc3ccc(C#N)cc3)C(=O)Nc3nc4cc(OC)c(OC)cc4s3)cc2)cc1 (stereo not drawn),0.1 to 0.2 µM
9,COCCS(=O)(=O)c1ccc(C(Oc2ccc(C#N)cc2)C(=O)Nc2nc3cc(OC)c(OC)cc3s2)cc1 (stereo not drawn),< 0.05 µM
10,COc1ccc(S(=O)(=O)c2ccccc2C(Oc2ccc(C#N)cc2)C(=O)Nc2nc3cc(OC)c(OC)cc3s2)cc1 (stereo not drawn),0.1 to 0.2 µM
11,COCCOc1ccc(OC(C(=O)Nc2nc3cc(OC)c(OC)cc3s2)c2ccc(C#N)cc2)cc1 (stereo not drawn),0.05 to 0.1 µM
12,COc1cc2nc(NC(=O)Cc3ccc(S(=O)(=O)C4CCCC4)cc3)sc2cc1OC,> 0.5 µM
13,CCS(=O)(=O)c1cccc(CC(=O)Nc2nc3cc(OC)c(OC)cc3s2)c1,> 0.5 µM
14,CCS(=O)(=O)c1ccc(C(Oc2ccc(C#N)cc2)C(=O)Nc2nc3cc(Cl)c(OC)cc3s2)cc1 (stereo not drawn),0.2 to 0.5 µM
15,COc1cc2nc(NC(=O)Cc3cccc(C(=O)O)c3)sc2cc1OC,> 0.5 µM
16,CCS(=O)(=O)c1ccc(C(Nc2ccc(OC)cc2)C(=O)Nc2nc3cc(OC)c(OC)cc3s2)cc1 (stereo not drawn),> 0.5 µM
17,CCS(=O)(=O)c1ccccc1C(Oc1ccc(C#N)cc1)C(=O)Nc1nc2cc(OC)c(OC)cc2s1 (stereo not drawn),< 0.05 µM
18,COc1cc2nc(NC(=O)C(Oc3ccc(C#N)cc3)c3ccccc3S(=O)(=O)c3ccc(F)cc3)sc2cc1OC (stereo not drawn),0.2 to 0.5 µM
19,COc1cc2nc(NC(=O)C(Oc3ccc(C#N)cc3)c3ccc(S(=O)(=O)CC4CC4)cc3)sc2cc1OC (stereo not drawn),< 0.05 µM
20,CCS(=O)(=O)c1cccc(C(Oc2ccc(OC)cc2)C(=O)Nc2nc3cc(OC)c(OC)cc3s2)c1 (stereo not drawn),> 0.5 µM

row,SMILES,EC50
1,COc1cc2nc(NC(=O)C(Oc3ccc(C#N)cc3)c3ccc(C(=O)NCCN4CCCCC4)cc3)sc2cc1OC (stereo not drawn),< 0.05 µM
2,CCS(=O)(=O)c1ccc(C(C)C(=O)Nc2nc3cc(OC)c(OC)cc3s2)cc1 (stereo not drawn),> 0.5 µM
3,COc1cc2nc(NC(=O)C(Oc3ccc(OCCN4CCCC4)cc3)c3ccc(C#N)cc3)sc2cc1OC (stereo not drawn),0.05 to 0.1 µM
4,CCS(=O)(=O)c1ccc(C(Oc2ccc(C#N)cc2)C(=O)Nc2nc3c(OC)ccc(OC)c3s2)cc1 (stereo not drawn),0.05 to 0.1 µM
5,CCCOC(C(=O)Nc1nc2cc(OC)c(OC)cc2s1)c1ccc(S(=O)(=O)CC)cc1 (stereo not drawn),> 0.5 µM
6,COc1cc2nc(NC(=O)Cc3ccccc3C(=O)O)sc2cc1OC,> 0.5 µM
7,COC(=O)c1ccc(OC(C(=O)Nc2nc3cc(OC)c(OC)cc3s2)c2ccc(C#N)cc2)cc1 (stereo not drawn),< 0.05 µM
8,CCS(=O)(=O)c1ccc(C(Oc2ccc(C#N)c(Cl)c2)C(=O)Nc2nc3cc(OC)c(OC)cc3s2)cc1 (stereo not drawn),< 0.05 µM
9,CCS(=O)(=O)c1ccc(C(Oc2ccc(OC)cc2)C(=O)Nc2nc3ccc4c(c3s2)OCO4)cc1 (stereo not drawn),> 0.5 µM
10,CCS(=O)(=O)c1ccc(CC(=O)Nc2nc3c4c(ccc3s2)OCO4)cc1,> 0.5 µM
11,COC(=O)c1cccc(CC(=O)Nc2nc3cc(OC)c(OC)cc3s2)c1,> 0.5 µM
12,CCS(=O)(=O)c1ccc(C(Oc2ccc(C#N)cc2)C(=O)Nc2nc3ccc(N4CCN(C)CC4)cc3s2)cc1 (stereo not drawn),> 0.5 µM
13,CCS(=O)(=O)c1ccc(C(NCC(C)C)C(=O)Nc2nc3cc(OC)c(OC)cc3s2)cc1 (stereo not drawn),> 0.5 µM
14,CCS(=O)(=O)c1ccc(C(Oc2ccc(C#N)cc2)C(=O)Nc2nc3cc(OCCO)c(OC)cc3s2)cc1 (stereo not drawn),0.2 to 0.5 µM
15,CCS(=O)(=O)c1ccc(C(NC2CCCC2)C(=O)Nc2nc3cc(OC)c(OC)cc3s2)cc1 (stereo not drawn),> 0.5 µM
16,COc1cc2nc(NC(=O)C(Oc3ccc(C#N)cc3)c3cccc(S(=O)(=O)C(C)(C)C)c3)sc2cc1OC (stereo not drawn),0.05 to 0.1 µM
17,COc1cc2nc(NC(=O)C(Oc3ccc(C#N)cc3)c3ccc(OCCN(C)C)cc3)sc2cc1OC (stereo not drawn),< 0.05 µM
18,CCS(=O)(=O)c1ccc(C(Nc2ccccc2OC)C(=O)Nc2nc3cc(OC)c(OC)cc3s2)cc1 (stereo not drawn),> 0.5 µM
19,CCS(=O)(=O)c1ccc(C(OC2CCCC2)C(=O)Nc2nc3cc(OC)c(OC)cc3s2)cc1 (stereo not drawn),> 0.5 µM
20,COCCNC(=O)c1ccc(C(Oc2ccc(C#N)cc2)C(=O)Nc2nc3cc(OC)c(OC)cc3s2)cc1 (stereo not drawn),0.05 to 0.1 µM

# Now from value to molecule:
row,EC50,SMILES
1,> 0.5 µM,CCS(=O)(=O)c1ccc(CC(=O)Nc2nc3cc4c(cc3s2)OCO4)cc1
2,> 0.5 µM,CCS(=O)(=O)c1ccc(C(OCc2ccccc2)C(=O)Nc2nc3cc(OC)c(OC)cc3s2)cc1 (stereo not drawn)
3,> 0.5 µM,CCS(=O)(=O)c1ccc(C(Oc2ccc(C#N)cc2)C(=O)Nc2nc3cc(OC)ccc3s2)cc1 (stereo not drawn)
4,< 0.05 µM,COc1cc2nc(NC(=O)C(Oc3ccc(C(=O)NCCN4CCCCC4)cc3)c3ccc(C#N)cc3)sc2cc1OC (stereo not drawn)
5,0.05 to 0.1 µM,COc1cc2nc(NC(=O)C(Oc3ccc(OCCN4CCCCC4)cc3)c3ccc(C#N)cc3)sc2cc1OC (stereo not drawn)
6,< 0.05 µM,CCS(=O)(=O)c1ccc(C(Oc2ccc(C(=O)N(C)C)cc2)C(=O)Nc2nc3cc(OC)c(OC)cc3s2)cc1 (stereo not drawn)
7,0.2 to 0.5 µM,COc1cc2nc(NC(=O)C(Oc3ccc(C#N)cc3)c3ccc(C(=O)N4CCNCC4)cc3)sc2cc1OC (stereo not drawn)
8,> 0.5 µM,CCS(=O)(=O)c1ccc(C(Oc2ccc(C#N)cc2)C(=O)Nc2nc3cc(OC)c(OC)cc3n2C)cc1 (stereo not drawn)
9,> 0.5 µM,CCS(=O)(=O)c1ccc(C(OCC2CCCCC2)C(=O)Nc2nc3cc(OC)c(OC)cc3s2)cc1 (stereo not drawn)
10,0.1 to 0.2 µM,COc1cc2nc(NC(=O)C(Oc3ccc(C#N)cc3)c3ccc(Cl)cc3)sc2cc1OC (stereo not drawn)
11,> 0.5 µM,CCS(=O)(=O)c1ccc(C(Oc2ccccc2OC)C(=O)Nc2nc3cc(OC)c(OC)cc3s2)cc1 (stereo not drawn)
12,< 0.05 µM,COc1cc2nc(NC(=O)C(Oc3ccc(OCCO)cc3)c3ccc(C#N)cc3)sc2cc1OC (stereo not drawn)
13,> 0.5 µM,COC(=O)c1ccc(CC(=O)Nc2nc3cc(OC)c(OC)cc3s2)cc1
14,> 0.5 µM,CCS(=O)(=O)c1ccc(C(Oc2cccc(OC)c2)C(=O)Nc2nc3cc(OC)c(OC)cc3s2)cc1 (stereo not drawn)
15,> 0.5 µM,CCS(=O)(=O)c1ccc(C(Oc2ccc(C#N)cc2)C(=O)Nc2nc3cc(OCc4ccccc4)c(OC)cc3s2)cc1 (stereo not drawn)
16,> 0.5 µM,CCS(=O)(=O)c1ccc(C(Oc2ccc(C(=O)O)cc2)C(=O)Nc2nc3cc(OC)c(OC)cc3s2)cc1 (stereo not drawn)
17,> 0.5 µM,CCS(=O)(=O)c1ccc(C(Oc2ccc(C#N)cc2)C(=O)Nc2nc3ccc(OCCN4CCOCC4)cc3s2)cc1 (stereo not drawn)
18,> 0.5 µM,CCS(=O)(=O)c1ccc(C(C(=O)Nc2nc3cc(OC)c(OC)cc3s2)N(C)C)cc1 (stereo not drawn)
19,> 0.5 µM,CCS(=O)(=O)c1ccc(C(Nc2ccccc2C)C(=O)Nc2nc3cc(OC)c(OC)cc3s2)cc1 (stereo not drawn)
20,> 0.5 µM,CCS(=O)(=O)c1ccc(C(Oc2ccc(OC)cc2)C(=O)Nc2nc3cc(OC)c(OC)cc3s2)cc1 (stereo not drawn)
21,0.2 to 0.5 µM,CCS(=O)(=O)c1ccc(C(Oc2ccc(OC(F)(F)F)cc2)C(=O)Nc2nc3cc(OC)c(OC)cc3s2)cc1 (stereo not drawn)
22,> 0.5 µM,CCCCOc1ccc(OC(C(=O)Nc2nc3cc(OC)c(OC)cc3s2)c2ccc(S(=O)(=O)CC)cc2)cc1 (stereo not drawn)
23,> 0.5 µM,CCS(=O)(=O)c1ccc(C(OCCCOC)C(=O)Nc2nc3cc(OC)c(OC)cc3s2)cc1 (stereo not drawn)
24,0.2 to 0.5 µM,CCS(=O)(=O)c1ccc(C(Oc2ccc(N(C)C)cc2)C(=O)Nc2nc3cc(OC)c(OC)cc3s2)cc1 (stereo not drawn)
25,> 0.5 µM,CCS(=O)(=O)c1ccc(C(C(=O)Nc2nc3cc(OC)c(OC)cc3s2)N2CCCCC2)cc1 (stereo not drawn)
26,< 0.05 µM,COc1cc2nc(NC(=O)C(Oc3ccc(C(=O)N4CCNCC4)cc3)c3ccc(C#N)cc3)sc2cc1OC (stereo not drawn)
27,0.2 to 0.5 µM,CCS(=O)(=O)c1ccc(C(Oc2ccc(C#N)cc2)C(=O)Nc2nc3cc(OC)c(C)cc3s2)cc1 (stereo not drawn)
28,< 0.05 µM,COCCOc1ccc(C(Oc2ccc(C#N)cc2)C(=O)Nc2nc3cc(OC)c(OC)cc3o2)cc1 (stereo not drawn)
29,> 0.5 µM,CCS(=O)(=O)c1ccc(C(Oc2ccc(C#N)cc2)C(=O)Nc2nc3cc4c(cc3s2)OCO4)cc1 (stereo not drawn)
